Marks after values point to notes of the source that are not given here.
Tests used:
[1] = Water solubility of spacer precursor (dialcohol form); type: physicochemical; conditions: tested as dialcohol precursor of the dodecyl spacer
Source text: Thus, the definition of spacers excludes microcarriers or nanocarriers. […] The form of the spacer moiety used for testing its water solubility is generally its most closely related unactivated and unprotected spacer precursor molecule. For example, C-19 contains a spacer moiety including a dodecyl group with phosphorothioate diester linkages at the C-1 and C-12 positions, thereby connecting the spacer moiety to the nucleic acid moieties. […] These higher water solubility spacers include, without limitation, propane 1,3 diol; glycerol; butane-1,4-diol; pentane-1,5-diol; hexane-1,6-diol; triethylene glycol, tetraethylene glycol and HEG.

[2] = test system: mice; experiment: Serum cytokines (IL-12 p40, IL-6, TNF-α) after subcutaneous injection in mice; type: in vivo; conditions: 20 ug subcutaneous, blood 2 hours later
Outline: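 Blood was taken 2 h after subcutaneous injection. LPS positive-control mice were dosed intraperitoneally and bled at 1.5 h, at the peak of TNF-α. Sera were stored at −80° C and TNF-α, IL-6 and IL-12 were measured by immunoassay kits or antibody pairs in duplicate.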

[3] = test system: mouse lung; experiment: Induction of immune-associated genes in the mouse lung after intranasal treatment (quantitative PCR); type: in vivo, BALB/c mice; conditions: 20 ug intranasal, 6 hrs
Protocol: The genes evaluated included genes encoding cytokines, chemokines, cell surface molecules, transcription factors, metalloproteases, and other molecules. The study was performed at Northview Pacific Laboratories (Hercules, Calif.) with 6-8 week old female BALB/c mice from Jackson Labs (Bar Harbor, Me.). […] Therefore, at 6 hrs the lungs were harvested and snap-frozen in liquid nitrogen and stored at −80° C. for later use. Total RNA was isolated using RNeasy mini kits (Qiagen Inc., Valencia, Calif.). The RNA samples were DNAse-treated (Roche Diagnostics, Mannheim, Germany) and converted into cDNA using Superscript II Rnase H-Reverse Transcriptase (Invitrogen, Rockville Md.) as described in Scheerens et al., 2001, Eur. J. of Immunology 31:1465-74. The cDNA samples were pooled per group and in each pooled sample the expression of mRNA of 75 genes was measured using real-time quantitative PCR (ABI Prism 5700, Perkin Elmer Applied Biosystems) and syber green (Qiagen Inc.). In addition to the genes of interest, in each sample the mRNA expression of a housekeeping gene was measured (HPRT or ubiquitin). In order to correct for the amount of RNA in each sample, all data were calculated relative to the expression of the housekeeping gene.

[4] = test system: human PBMCs; experiment: Human PBMC cytokine response assay (IFN-γ and IFN-α in cell-free medium by ELISA), with or without cPLGA; type: cell-based;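 as to IFN-α (pg/ml) mean: 20 µg/mL compound for 24 hours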;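 as to IFN-γ (pg/ml) mean: 20 µg/mL compound for 24 hours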
[5] = test system: hepatitis B surface antigen (HBsAg); conditions: in vivo
[6] = test system: PBMCs; experiment: Human PBMC proliferation assay (3H-thymidine incorporation); type: cell-based; conditions: Experiment A; for mean cpm: 2 μg/ml
[7] = test system: CD19+ B cells; experiment: Human B cell proliferation assay (3H-thymidine incorporation); conditions: 2 μg/ml; for cpm1 / cpm2 / cpm3 / mean cpm / mean of both: B cells
[8] = donor 28066, 20 ug/ml, 24 h, + PLGA = premixed with 100 μg/ml cPLGA
[9] = donor 28067, 20 ug/ml, 24 h, + PLGA = premixed with 100 μg/ml cPLGA
[10] = donor 28068, 20 ug/ml, 24 h, + PLGA = premixed with 100 μg/ml cPLGA
[11] = mean of Donors 1-2, 20 μg/ml, 24 h
[12] = mean of Donors 9-12, 20 μg/ml, 24 h
[13] = mean of donors 28065-28068, 20 ug/ml, 24 h, + PLGA = premixed with 100 μg/ml cPLGA
[14] = mean of donors 28185-28188, Table 15

OCCCCCCCCCCCCO [1,12-dihydroxydodecane]
solubility [1]: < 5000 µg/mL

5′-TCGTCGA-3′- C3-5′-ACGTTCG-3′-C3-5′-AGATGAT-3′ [Compound C-9]
induction of serum IL-12 p40, IL-6 and TNF-α, in words [2]: induced IL-12 p40, IL-6, and TNF-α | mRNA expression of IFN-alpha in the lung, in words [3]: considerably higher mRNA expression of IFN-alpha | mRNA expression of immune-associated genes in the lung, in words ([3]; vs P-7 treated mice): potently induce the expression of a variety of genes | IFN-α (pg/ml) Donor 1 ([4]; Donor 1, 20 μg/ml, 24 h): 142 pg/mL | IFN-γ (pg/ml) Donor 1 ([4]; Donor 1, 20 μg/ml, 24 h): 2157 pg/mL | IFN-α (pg/ml) Donor 2 ([4]; Donor 2, 20 μg/ml, 24 h): 0 pg/mL | IFN-γ (pg/ml) Donor 2 ([4]; Donor 2, 20 μg/ml, 24 h): 171 pg/mL | IFN-α Donor 9 ([4]; Donor 9, 20 μg/ml, 24 h): 8 | IFN-γ Donor 9 ([4]; Donor 9, 20 μg/ml, 24 h): 134 | IFN-α Donor 10 ([4]; Donor 10, 20 μg/ml, 24 h): 10 | IFN-γ Donor 10 ([4]; Donor 10, 20 μg/ml, 24 h): 7 | IFN-α Donor 11 ([4]; Donor 11, 20 μg/ml, 24 h): 1 | IFN-γ Donor 11 ([4]; Donor 11, 20 μg/ml, 24 h): 56 | IFN-α Donor 12 ([4]; Donor 12, 20 μg/ml, 24 h): 15 | IFN-γ Donor 12 ([4]; Donor 12, 20 μg/ml, 24 h): 30 | IFN-α ([4]; Table 9, donor 28089): 10 pg/mL | IFN-γ ([4]; Table 9, donor 28089): 12 pg/mL | IFN-α ([4]; Table 9, donor 28090): 67 pg/mL | IFN-γ ([4]; Table 9, donor 28090): 7 pg/mL | IFN-α mean ([4]; Table 9, mean of donors): 39 pg/mL | IFN-γ mean ([4]; Table 9, mean of donors): 10 pg/mL | IFN-α ([4]; Table 11, donor 28042): 39 pg/mL | IFN-γ ([4]; Table 11, donor 28042): 691 pg/mL | IFN-α ([4]; Table 11, donor 28043): 0 pg/mL | IFN-γ ([4]; Table 11, donor 28043): 268 pg/mL | IFN-α ([4]; Table 11, donor 28044): 11 pg/mL | IFN-γ ([4]; Table 11, donor 28044): 590 pg/mL | IFN-α ([4]; Table 11, donor 28045): 64 pg/mL | IFN-γ ([4]; Table 11, donor 28045): 1306 pg/mL | IFN-α mean ([4]; Table 11, mean of donors): 29 pg/mL | IFN-γ mean ([4]; Table 11, mean of donors): 714 pg/mL | IFN-α ([4]; Table 13, donor 28156): 26 pg/mL | IFN-γ ([4]; Table 13, donor 28156): 1162 pg/mL | IFN-α ([4]; Table 13, donor 28157): 142 pg/mL | IFN-γ ([4]; Table 13, donor 28157): 729 pg/mL | IFN-α ([4]; Table 13, donor 28158): 78 pg/mL | IFN-γ ([4]; Table 13, donor 28158): 192 pg/mL | IFN-α ([4]; Table 13, donor 28159): 20 pg/mL | IFN-γ ([4]; Table 13, donor 28159): 329 pg/mL | IFN-α mean ([4]; Table 13, mean of donors): 67 pg/mL | IFN-γ mean ([4]; Table 13, mean of donors): 603 pg/mL | IFN-γ (pg/ml) 28065 ([4]; donor 28065 (high background), 20 ug/ml, 24 h, + PLGA = premixed with 100 μg/ml cPLGA, 1000 = outside assay limits): 1000 pg/mL | IFN-α (pg/ml) 28065 ([4]; donor 28065, 20 ug/ml, 24 h, + PLGA = premixed with 100 μg/ml cPLGA): 13 pg/mL | IFN-α (pg/ml) 28066 [4, 8]: 0 pg/mL | IFN-γ (pg/ml) 28066 [4, 8]: 8 pg/mL | IFN-α (pg/ml) 28067 [4, 9]: 22 pg/mL | IFN-γ (pg/ml) 28067 [4, 9]: 57 pg/mL | IFN-α (pg/ml) 28068 [4, 10]: 64 pg/mL | IFN-γ (pg/ml) 28068 [4, 10]: 510 pg/mL | IFN-a ([4]; donor 28185, Table 15): 25 pg/mL | IFN-g ([4]; donor 28185, Table 15): 189 pg/mL | IFN-a ([4]; donor 28186, Table 15): 16 pg/mL | IFN-g ([4]; donor 28186, Table 15): 24 pg/mL | IFN-a ([4]; donor 28187, Table 15): 4 pg/mL | IFN-g ([4]; donor 28187, Table 15): 95 pg/mL | IFN-a ([4]; donor 28188, Table 15): 146 pg/mL | IFN-g ([4]; donor 28188, Table 15): 11 pg/mL | IFN-α (pg/ml) mean [4, 11]: 71 pg/mL | IFN-γ (pg/ml) mean [4, 11]: 1164 pg/mL | IFN-α mean [4, 12]: 8 | IFN-γ mean [4, 12]: 56 | IFN-α (pg/ml) mean [4, 13]: 25 pg/mL | IFN-γ (pg/ml) mean [4, 13]: 394 pg/mL | IFN-a (pg/ml) mean [4, 14]: 48 pg/mL | IFN-g (pg/ml) mean [4, 14]: 80 pg/mL | IFN-a (pg/ml) ×2 ([4]; mean ×2, Table 15): 95 pg/mL | IFN-g (pg/ml) ×4 ([4]; mean ×4, Table 15): 319 pg/mL | Anti-HBsAg (mIU/ml) post-first, Mean [5]: 68 mIU/ml | Anti-HBsAg (mIU/ml) post-second, Mean [5]: 4135** mIU/ml | cpm1 ([6]; Donor 146, 2 μg/ml): 55348 cpm | cpm2 ([6]; Donor 146, 2 μg/ml): 24857 cpm | cpm3 ([6]; Donor 146, 2 μg/ml): 39953 cpm | mean cpm ([6]; Donor 146 mean): 40053 cpm | cpm1 ([6]; Donor 147, 2 μg/ml): 88106 cpm | cpm2 ([6]; Donor 147, 2 μg/ml): 65413 cpm | cpm3 ([6]; Donor 147, 2 μg/ml): 90665 cpm | mean cpm ([6]; Donor 147 mean): 81395 cpm | mean of both ([6]; mean of Donors 146 and 147, 2 μg/ml): 60724 cpm | B cell proliferation, in words ([7]; 48 h plus 8 h 3H-thymidine pulse): cause B cells to proliferate | cpm1 ([7]; Donor 146, Experiment A): 35365 cpm | cpm2 ([7]; Donor 146, Experiment A): 42705 cpm | cpm3 ([7]; Donor 146, Experiment A): 45231 cpm | mean cpm ([7]; Donor 146 mean, Experiment A): 41100 cpm | cpm1 ([7]; Donor 147, Experiment A): 55543 cpm | cpm2 ([7]; Donor 147, Experiment A): 49035 cpm | cpm3 ([7]; Donor 147, Experiment A): 44985 cpm | mean cpm ([7]; Donor 147 mean, Experiment A): 49854 cpm | cpm1 ([7]; donor 121, Experiment B): 21938 cpm | cpm2 ([7]; donor 121, Experiment B): 35400 cpm | cpm3 ([7]; donor 121, Experiment B): 23877 cpm | mean cpm ([7]; donor 121 mean, Experiment B): 27072 cpm | cpm1 ([7]; donor 194, Experiment B): 13660 cpm | cpm2 ([7]; donor 194, Experiment B): 16717 cpm | cpm3 ([7]; donor 194, Experiment B): 17866 cpm | mean cpm ([7]; donor 194 mean, Experiment B): 16081 cpm | mean of both ([7]; mean of Donors 146 and 147, Experiment A): 45477 cpm | mean of both ([7]; mean of donors 121 and 194, Experiment B): 21576 cpm
